Test results reported in patent US10947271B2, “Antibacterial agents” (THE UNIVERSITY OF QUEENSLAND, priority 2014, dated 2021).

How the values were obtained:
Type in all cases: cell-based
Details in all cases: 24 h incubation, visual reading
[1] = system: Enterococcus faecium MDR Van A ATCC 51559; assay: MIC assay, E. faecium MDR Van A ATCC 51559
Summary of the method: (§1)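 Twofold broth microdilution in Mueller Hinton broth; compounds tested from 8 μg/ml to 0.003 μg/ml. Mid-log cultures were inoculated at 5×10e5 CFU/mL and incubated 24 h at 37° C. MIC was the lowest concentration with no visible growth.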

[2] = system: Staphylococcus aureus MRSA ATCC 43300; assay: MIC assay, S. aureus MRSA ATCC 43300
Summary of the method: as §1

[3] = system: Streptococcus pneumoniae MDR ATCC 700677; assay: MIC assay, S. pneumoniae MDR ATCC 700677
Summary of the method: as §1

SMILES	Minimum Inhibitory Concentration (MIC) E. faecium ATCC51559 [1]	Minimum Inhibitory Concentration (MIC) Staph. aureus ATCC43300 [2]	Minimum Inhibitory Concentration (MIC) S. pneumoniae ATCC 700677 [3]
CCCCCCCCCCC(=O)N[C@@H](CCCCN)C(=O)N[C@@H](CCCCN)C(=O)N[C@@H](CCCCNC(=O)[C@H]1NC(=O)[C@H]2NC(=O)[C@H](NC(=O)[C@@H]3NC(=O)[C@H](CC(N)=O)NC(=O)[C@H](NC(=O)[C@@H](CC(C)C)NC)[C@H](O)c4ccc(c(Cl)c4)Oc4cc3cc(c4O[C@@H]3O[C@H](CO)[C@@H](O)[C@H](O)[C@H]3O[C@H]3C[C@](C)(N)[C@H](O)[C@H](C)O3)Oc3ccc(cc3Cl)[C@H]2O)c2ccc(O)c(c2)-c2c(O)cc(O)cc21)C(=O)NC [MCC_000292]	xx (xx = 1-4)	xxxx (xxxx = 0.01-<0.1)	xxxx (xxxx = 0.01-<0.1)
CCCCCCCCCOc1ccc(C(=O)NC(CCCCN)C(=O)NC(CCCCN)C(=O)NC(CCCCNC(=O)C2NC(=O)C3NC(=O)C(NC(=O)C4NC(=O)C(CC(N)=O)NC(=O)C(NC(=O)C(CC(C)C)NC)C(O)c5ccc(c(Cl)c5)Oc5cc4cc(c5OC4OC(CO)C(O)C(O)C4OC4CC(C)(N)C(O)C(C)O4)Oc4ccc(cc4Cl)C3O)c3ccc(O)c(c3)-c3c(O)cc(O)cc32)C(=O)NC)cc1 (stereo not drawn) [MCC_000504]	xxx (xxx = 0.1-<1)	xxxxx (xxxxx = <0.01)	xxxxx (xxxxx = <0.01)
CCCCCCCCCCCCCC(=O)N[C@@H](CCCCN)C(=O)N[C@@H](CCCCN)C(=O)NCCCNC(=O)[C@H]1NC(=O)[C@H]2NC(=O)[C@H](NC(=O)[C@@H]3NC(=O)[C@H](CC(N)=O)NC(=O)[C@H](NC(=O)[C@@H](CC(C)C)NC)[C@H](O)c4ccc(c(Cl)c4)Oc4cc3cc(c4O[C@@H]3O[C@H](CO)[C@@H](O)[C@H](O)[C@H]3O[C@H]3C[C@](C)(N)[C@H](O)[C@H](C)O3)Oc3ccc(cc3Cl)[C@H]2O)c2ccc(O)c(c2)-c2c(O)cc(O)cc21 [MCC_000345]	xxxx (xxxx = 0.01-<0.1)	xxxxx (xxxxx = <0.01)	xxxxx (xxxxx = <0.01)
CNC(=O)C(CCCCNC(=O)C1NC(=O)C2NC(=O)C(NC(=O)C3NC(=O)C(CC(N)=O)NC(=O)C(NC(=O)C(CC(C)C)NC)C(O)c4ccc(c(Cl)c4)Oc4cc3cc(c4OC3OC(CO)C(O)C(O)C3OC3CC(C)(N)C(O)C(C)O3)Oc3ccc(cc3Cl)C2O)c2ccc(O)c(c2)-c2c(O)cc(O)cc21)NC(=O)C(CCCCN)NC(=O)C(CCCCN)NC(=O)CCCOc1ccccc1 (stereo not drawn) [MCC_000505]	x (x = >4)	xxx (xxx = 0.1-<1)	xx (xx = 1-4)
CCC(=O)N[C@@H](CCCCN)C(=O)N[C@@H](CCCCN)C(=O)N[C@@H](CCCCNC(=O)[C@H]1NC(=O)[C@H]2NC(=O)[C@H](NC(=O)[C@@H]3NC(=O)[C@H](CC(N)=O)NC(=O)[C@H](NC(=O)[C@@H](CC(C)C)NC)[C@H](O)c4ccc(c(Cl)c4)Oc4cc3cc(c4O[C@@H]3O[C@H](CO)[C@@H](O)[C@H](O)[C@H]3O[C@H]3C[C@](C)(N)[C@H](O)[C@H](C)O3)Oc3ccc(cc3Cl)[C@H]2O)c2ccc(O)c(c2)-c2c(O)cc(O)cc21)C(=O)O [MCC_005388]	x (x = >4)	xx (xx = 1-4)	x (x = >4)
CCCCCCCCCCC(=O)NCC(=O)N[C@@H](CCCCN)C(=O)N[C@@H](CCCCN)C(=O)N[C@@H](CCCCN)C(=O)N[C@@H](CCCCNC(=O)[C@H]1NC(=O)[C@H]2NC(=O)[C@H](NC(=O)[C@@H]3NC(=O)[C@H](CC(N)=O)NC(=O)[C@H](NC(=O)[C@@H](CC(C)C)NC)[C@H](O)c4ccc(c(Cl)c4)Oc4cc3cc(c4O[C@@H]3O[C@H](CO)[C@@H](O)[C@H](O)[C@H]3O[C@H]3C[C@](C)(N)[C@H](O)[C@H](C)O3)Oc3ccc(cc3Cl)[C@H]2O)c2ccc(O)c(c2)-c2c(O)cc(O)cc21)C(=O)O [MCC_000346]	x (x = >4)	xxxx (xxxx = 0.01-<0.1)	xxxx (xxxx = 0.01-<0.1)
CCCCCCCCCC(=O)N[C@@H](CCCNC(=N)N)C(=O)N1CCC(CNC(=O)[C@H]2NC(=O)[C@H]3NC(=O)[C@H](NC(=O)[C@@H]4NC(=O)[C@H](CC(N)=O)NC(=O)[C@H](NC(=O)[C@@H](CC(C)C)NC)[C@H](O)c5ccc(c(Cl)c5)Oc5cc4cc(c5O[C@@H]4O[C@H](CO)[C@@H](O)[C@H](O)[C@H]4O[C@H]4C[C@](C)(N)[C@H](O)[C@H](C)O4)Oc4ccc(cc4Cl)[C@H]3O)c3ccc(O)c(c3)-c3c(O)cc(O)cc32)CC1 [MCC_005484]	x (x = >4)	xxxxx (xxxxx = <0.01)	xxxxx (xxxxx = <0.01)
CCCCCCCCCC(=O)N[C@@H](CCCNC(=N)N)C(=O)N[C@@H](CCCNC(=N)N)C(=O)NCCCNC(=O)[C@H]1NC(=O)[C@H]2NC(=O)[C@H](NC(=O)[C@@H]3NC(=O)[C@H](CC(N)=O)NC(=O)[C@H](NC(=O)[C@@H](CC(C)C)NC)[C@H](O)c4ccc(c(Cl)c4)Oc4cc3cc(c4O[C@@H]3O[C@H](CO)[C@@H](O)[C@H](O)[C@H]3O[C@H]3C[C@](C)(N)[C@H](O)[C@H](C)O3)Oc3ccc(cc3Cl)[C@H]2O)c2ccc(O)c(c2)-c2c(O)cc(O)cc21 [MCC_005482]	xx (xx = 1-4)	xxxxx (xxxxx = <0.01)	xxxxx (xxxxx = <0.01)
CNC(=O)[C@H](CCCCNC(=O)[C@H]1NC(=O)[C@H]2NC(=O)[C@H](NC(=O)[C@@H]3NC(=O)[C@H](CC(N)=O)NC(=O)[C@H](NC(=O)[C@@H](CC(C)C)NC)[C@H](O)c4ccc(c(Cl)c4)Oc4cc3cc(c4O[C@@H]3O[C@H](CO)[C@@H](O)[C@H](O)[C@H]3O[C@H]3C[C@](C)(N)[C@H](O)[C@H](C)O3)Oc3ccc(cc3Cl)[C@H]2O)c2ccc(O)c(c2)-c2c(O)cc(O)cc21)NC(=O)[C@H](CCCCN)NC(=O)[C@H](CCCCN)NC(=O)[C@H](CCCCNC(=O)Cc1ccc(-c2ccccc2)cc1)NC(=O)Cc1ccc(-c2ccccc2)cc1 [MCC_000652]	xxx (xxx = 0.1-<1)	xxxxx (xxxxx = <0.01)	xxxxx (xxxxx = <0.01)
CCCCCCCCCC(=O)N[C@@H](CCCNC(=N)N)C(=O)N[C@@H](CCCNC(=N)N)C(=O)N[C@@H](CCCCNC(=O)[C@H]1NC(=O)[C@H]2NC(=O)[C@H](NC(=O)[C@@H]3NC(=O)[C@H](CC(N)=O)NC(=O)[C@H](NC(=O)[C@@H](CC(C)C)NC)[C@H](O)c4ccc(c(Cl)c4)Oc4cc3cc(c4O[C@@H]3O[C@H](CO)[C@@H](O)[C@H](O)[C@H]3O[C@H]3C[C@](C)(N)[C@H](O)[C@H](C)O3)Oc3ccc(cc3Cl)[C@H]2O)c2ccc(O)c(c2)-c2c(O)cc(O)cc21)C(=O)O [MCC_005507]	x (x = >4)	xxxx (xxxx = 0.01-<0.1)	xxxx (xxxx = 0.01-<0.1)
CCCCCCCCCCC(=O)NC(CCCNC(=N)N)C(=O)NCCCNC(=O)C1NC(=O)C2NC(=O)C(NC(=O)C3NC(=O)C(CC(N)=O)NC(=O)C(NC(=O)C(CC(C)C)NC)C(O)c4ccc(c(Cl)c4)Oc4cc3cc(c4OC3OC(CO)C(O)C(O)C3OC3CC(C)(N)C(O)C(C)O3)Oc3ccc(cc3Cl)C2O)c2ccc(O)c(c2)-c2c(O)cc(O)cc21 (stereo not drawn) [MCC_007337]	xx (xx = 1-4)	xxxxx (xxxxx = <0.01)	xxxxx (xxxxx = <0.01)
CNC(=O)C(CCCCNC(=O)C1NC(=O)C2NC(=O)C(NC(=O)C3NC(=O)C(CC(N)=O)NC(=O)C(NC(=O)C(CC(C)C)NC)C(O)c4ccc(c(Cl)c4)Oc4cc3cc(c4OC3OC(CO)C(O)C(O)C3OC3CC(C)(N)C(O)C(C)O3)Oc3ccc(cc3Cl)C2O)c2ccc(O)c(c2)-c2c(O)cc(O)cc21)NC(=O)C(CCCCN)NC(=O)C(CCCCNC(=O)CCCOc1ccccc1)NC(=O)CCCOc1ccccc1 (stereo not drawn) [MCC_000506]	x (x = >4)	xxx (xxx = 0.1-<1)	xxx (xxx = 0.1-<1)
CNC(=O)C(CCCCNC(=O)C1NC(=O)C2NC(=O)C(NC(=O)C3NC(=O)C(CC(N)=O)NC(=O)C(NC(=O)C(CC(C)C)NC)C(O)c4ccc(c(Cl)c4)Oc4cc3cc(c4OC3OC(CO)C(O)C(O)C3OC3CC(C)(N)C(O)C(C)O3)Oc3ccc(cc3Cl)C2O)c2ccc(O)c(c2)-c2c(O)cc(O)cc21)NC(=O)C(CCCCN)NC(=O)C(CCCCN)NC(=O)c1ccc(Oc2ccc(F)cc2)cc1 (stereo not drawn) [MCC_000514]	x (x = >4)	xxx (xxx = 0.1-<1)	xxx (xxx = 0.1-<1)
